Source: publication PMC9709406 (Frontiers in Pharmacology, 2022)
Where two headings read alike, the source gives them in different places.

Columns and labels:
H1975OR cells = test: MTT assay, osimertinib-resistant H1975OR; format: cell-based; settings: Homo sapiens, NCI-H1975, 48 h, osimertinib-resistant H1975OR, value in parentheses in H1975 column, read-out: IC50 48 h H1975OR (data in parentheses) (converted)
Text: (§1) The human cancer cells (H1650, H1975, KYSE70, KYSE410 and KYSE450) were purchased from the Type Culture Collection of the Chinese Academy of Sciences (Shanghai, China). The human immortalized normal esophageal epithelial cell line SHEE was donated by Dr. Enmin Li from the Laboratory of Tumor Pathology (Shantou University Medical College, Shantou, Guangdong, China). Drug-resistant cells (H1650TR, H1975OR, KYSE70TR, KYSE410TR and KYSE450TR) were induced by China-US (Henan) Hormel Cancer Institute. The cellswere cultured in RPMI-1640 complete growth medium containing 100 U/mL penicillin-streptomycin and 10% FBS. Based on the above medium formula, 100 nm/L paclitaxel was added in taxol-resistant cells, 100 nm/L gefitinib was added in gefitinib-resistant cells. The cells were incubated at 37 °C in an atmosphere containing 5% of CO2. The compounds were dissolved in DMSO to make a 50 mM stock solution and were diluted to the concentration of working solutions with complete growth medium before administration.
(§2) Cells were seeded in 96-well plates with 2,200–2,500 cells/well in100 μL. One day after seeding, test compounds with the concentration between 0 and 50 μM were added with 0.1% DMSO as control. Five multiple wells for each concentration. […] The absorbance at 490 nm was measured using a microplate reader (Thermo).

SHEE cells = test: MTT assay, normal esophageal epithelial cell line SHEE; format: cell-based; settings: Homo sapiens, 48 h, n = 5
Summary of the method: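 Viability was assessed by MTT at 490 nm after two days of compound treatment (0–50 μM) in RPMI-1640 with 10% FBS.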

KYSE410 cells = test: MTT assay, KYSE410; format: cell-based, human; settings: for IC50: Homo sapiens, KYSE-410
Summary of the method: (§3)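 Absorbance at 490 nm after 1–4 h MTT incubation gave viability of cells exposed 48 h to test compound (0–50 μM; vehicle 0.1% DMSO). Seeding was 2,200–2,500 cells/well, one day before dosing, in RPMI-1640/10% FBS at 37 °C, 5% CO2.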

KYSE450 cells [1] = test: MTT assay, KYSE450; format: cell-based, human; settings: for IC50: Homo sapiens, KYSE-450
Summary of the method: as §3

KYSE410TR cells = test: MTT assay, taxol-resistant KYSE410TR; format: cell-based, human; settings: for blank-corrected absorbance 490 nm relative to control (fraction) / inhibition (1 minus fraction of control): 410TR
Text: as §1, §2

KYSE450TR cells = test: MTT assay, taxol-resistant KYSE450TR; format: cell-based, human; settings: for blank-corrected absorbance 490 nm relative to control (fraction) / inhibition (1 minus fraction of control): 450TR; for IC50: Homo sapiens, MTT
Text: as §1, §2

EGFR = target: T1, EGFR (Homo sapiens, UniProt P00533); test: EGFR kinase assay (ELISA); format: biochemical; settings: 25°C
T1 construct: purchased Active MOTIF
Protocol: Kinase inhibitory activities of the compounds were evaluated using the Protein Tyrosine Kinase Assay Kit (SignalChem (British Columbia, Canada)). The kinase enzyme of EGFR was purchased from Active MOTIF. The ELISA experiments were carried out according the instructions of the kit. Active kinases were incubated with indicated compounds in 1 × reaction buffer containing 20 μM substrate at 25°C for 1 h and 2 h, respectively. The absorbance was read with a multimode plate reader (PerkinElmer, United States) at 450 nm.

KYSE450 cells [2] = test: Annexin V/PI flow cytometry for apoptosis, KYSE450; format: cell-based, human; settings: 48 h
Protocol: Cell-apoptosis analysis was carried out by flow cytometry using the Annexin V/PI apoptosis methods. […] Cells were harvested and incubated with 250 μL of 1 × Annexin V binding buffer containing 5 μL PI and 5 μL FITC Annexin V (final concentration 1.8 μg/ml, Biolegend (cat: 640945) for 15 min at room temperature in dark. 200 µL of 1 × binding buffer was added for flow cytometry analysis (BD FACSCalibur™ Flow Cytometer).

[3] = test system: KYSE450 cell-derived xenograft; test: In vivo cell-derived xenograft (CDX) mouse model; set-up: species or system nu/nu nude mice
Protocol: Mice were housed under specific pathogen-free conditions. All animal experiments were approved by the Bioethics Committee of Zhengzhou University and followed the guidelines set by the Institutional Animal Care and Use Committee (CUHCI2019002, CUHCI2021001, and CUHCI2021005). To generate the cell-derived xenograft (CDX) mouse model, nu/nu nude mice (Vital River Labs., Beijing, China) were subcutaneously injected with 5 × 10^6 cells (KYSE450). […] Tumor volume was calculated as follows: length × width × height × 0.5. Tumor size and mice weight were measured every 2–3 days. Compounds were administered for 15 days. The tumors were extracted for weighting, immunohistochemistry and immunofluorescence studies.
Frozen sections were washed three times with PBS and incubated overnight at 4°C with Ki-67 antibody. The next day, sections were washed three times and incubated with secondary antibody in PBS. After several washes, slides were counterstained with DAPI (Solarbio). The sections were mounted on microscope and imaged using fluorescent microscopy (Nikon, Tokyo, Japan). Image-Pro Plus 6.0 was used to analyze the fluorescence intensity.
Histological sections were dewaxed, antigens were repaired and sealed with serum in sequence. Next, histological sections were incubated overnight with diluted primary antibodies (1 : 500 dilution), and the control specimens were treated with PBS. The sections were washed 3 times with PBS. Secondary antibody was added and the system was then placed at 37 °C for half an hour. The systems were washed 3 times with PBS. Color developing agent was added. After washing with water, the system was soaked in hematoxylin for 0.5 min for dyeing. The re-dyed slides were washed with water, and then dehydrated. Neutral gums were dropped on the side of the tissue. The slices were then covered with cover glass, sealed and placed in a ventilator for drying. Immunohistochemical staining analysis was then carried out with Image-Pro Plus 6.0.

[4] = nude mice, 50 mg/kg i.p. every day, 15 days, vs control group and icotinib group

T1 sequence (P00533 25-1210): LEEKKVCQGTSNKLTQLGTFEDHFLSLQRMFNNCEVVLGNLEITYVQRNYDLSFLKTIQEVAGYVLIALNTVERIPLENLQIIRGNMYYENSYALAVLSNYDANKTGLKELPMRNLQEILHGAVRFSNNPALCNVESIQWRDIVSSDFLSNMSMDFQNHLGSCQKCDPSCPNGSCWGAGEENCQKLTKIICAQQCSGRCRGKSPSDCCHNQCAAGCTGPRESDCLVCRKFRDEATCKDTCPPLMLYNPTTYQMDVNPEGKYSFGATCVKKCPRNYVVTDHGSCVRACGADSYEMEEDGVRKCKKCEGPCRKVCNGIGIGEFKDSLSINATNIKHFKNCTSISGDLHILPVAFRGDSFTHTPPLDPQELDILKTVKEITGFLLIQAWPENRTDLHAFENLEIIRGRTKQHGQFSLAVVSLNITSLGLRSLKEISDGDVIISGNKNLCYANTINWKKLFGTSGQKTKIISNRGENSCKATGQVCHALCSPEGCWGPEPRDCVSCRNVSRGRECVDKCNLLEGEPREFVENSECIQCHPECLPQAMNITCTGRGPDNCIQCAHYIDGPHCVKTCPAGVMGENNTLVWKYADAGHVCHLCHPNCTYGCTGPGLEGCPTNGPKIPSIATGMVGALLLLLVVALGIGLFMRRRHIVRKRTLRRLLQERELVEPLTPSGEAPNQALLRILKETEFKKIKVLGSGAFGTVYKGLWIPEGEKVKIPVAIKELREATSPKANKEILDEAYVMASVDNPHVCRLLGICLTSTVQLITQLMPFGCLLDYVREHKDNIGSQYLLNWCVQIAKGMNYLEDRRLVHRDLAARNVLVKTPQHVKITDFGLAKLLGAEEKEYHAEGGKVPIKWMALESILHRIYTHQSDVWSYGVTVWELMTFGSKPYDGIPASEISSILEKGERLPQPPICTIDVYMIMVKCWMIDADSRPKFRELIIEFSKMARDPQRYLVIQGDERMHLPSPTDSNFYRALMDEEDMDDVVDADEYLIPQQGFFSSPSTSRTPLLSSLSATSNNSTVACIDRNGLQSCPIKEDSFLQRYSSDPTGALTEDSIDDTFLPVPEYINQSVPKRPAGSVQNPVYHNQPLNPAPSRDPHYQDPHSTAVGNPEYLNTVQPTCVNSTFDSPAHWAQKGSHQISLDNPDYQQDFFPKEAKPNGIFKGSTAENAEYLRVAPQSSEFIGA

Compound FC(F)(F)c1ccc(-n2cc(-c3cccc(Nc4ncnc5cc6c(cc45)OCCOCCOCCO6)c3)nn2)cc1 [compound 3l] has an IC50 (H1975OR cells) of 9.73 µM, an IC50 (SHEE cells) of 4.82 ± 0.23 µM and an IC50 (KYSE410 cells; KYSE410, MTT, 490 nm, read-out: IC50) of 7 µM. For the same compound, the IC50 (KYSE410 cells; MTT, 48 h, KYSE410, n = 5, read-out: IC50 48 h KYSE410) was 5.94 ± 0.41 µM, the “blank-corrected absorbance 490 nm relative to control (fraction)” value (KYSE410 cells; KYSE410, concentration 3.5) was 0.6286 and the “inhibition (1 minus fraction of control)” value (KYSE410 cells; KYSE410, concentration 3.5) was 0.3714. For the same compound, the “blank-corrected absorbance 490 nm relative to control (fraction)” value (KYSE410 cells; KYSE410, concentration 7) was 0.487, the “inhibition (1 minus fraction of control)” value (KYSE410 cells; KYSE410, concentration 7) was 0.513 and the “blank-corrected absorbance 490 nm relative to control (fraction)” value (KYSE410 cells; KYSE410, concentration 14) was 0.3214. For the same compound, the “inhibition (1 minus fraction of control)” value (KYSE410 cells; KYSE410, concentration 14) was 0.6786, the IC50 (KYSE450 cells [1]; KYSE450, MTT, 490 nm, read-out: IC50) was 4 µM and the IC50 (KYSE450 cells [1]; MTT, 48 h, KYSE450, n = 5, read-out: IC50 48 h KYSE450) was 3.4 ± 0.16 µM. The “blank-corrected absorbance 490 nm relative to control (fraction)” value (KYSE450 cells [1]; KYSE450, concentration 2) was 0.4268, the “inhibition (1 minus fraction of control)” value (KYSE450 cells [1]; KYSE450, concentration 2) was 0.5732 and the “blank-corrected absorbance 490 nm relative to control (fraction)” value (KYSE450 cells [1]; KYSE450, concentration 4) was 0.4691. For the same compound, the “inhibition (1 minus fraction of control)” value (KYSE450 cells [1]; KYSE450, concentration 4) was 0.5309, the “blank-corrected absorbance 490 nm relative to control (fraction)” value (KYSE450 cells [1]; KYSE450, concentration 8) was 0.05646 and the “inhibition (1 minus fraction of control)” value (KYSE450 cells [1]; KYSE450, concentration 8) was 0.9435. The “blank-corrected absorbance 490 nm relative to control (fraction)” value (KYSE410TR cells; concentration 4) was 0.5568, the “inhibition (1 minus fraction of control)” value (KYSE410TR cells; concentration 4) was 0.4432 and the “blank-corrected absorbance 490 nm relative to control (fraction)” value (KYSE410TR cells; concentration 8) was 0.3771. The “inhibition (1 minus fraction of control)” value (KYSE410TR cells; concentration 8) was 0.6229, the “blank-corrected absorbance 490 nm relative to control (fraction)” value (KYSE410TR cells; concentration 16) was 0.2345 and the “inhibition (1 minus fraction of control)” value (KYSE410TR cells; concentration 16) was 0.7655. For the same compound, the IC50 (KYSE410TR cells; Homo sapiens, MTT, 48 h, taxol-resistant KYSE410TR, value in parentheses, read-out: IC50 48 h KYSE410TR (data in parentheses) (converted)) was 5.3 µM, the “blank-corrected absorbance 490 nm relative to control (fraction)” value (KYSE450TR cells; concentration 4) was 0.04737 and the “inhibition (1 minus fraction of control)” value (KYSE450TR cells; concentration 4) was 0.9526. The “blank-corrected absorbance 490 nm relative to control (fraction)” value (KYSE450TR cells; concentration 8) was 0.04791, the “inhibition (1 minus fraction of control)” value (KYSE450TR cells; concentration 8) was 0.9521 and the “blank-corrected absorbance 490 nm relative to control (fraction)” value (KYSE450TR cells; concentration 16) was 0.1075. The “inhibition (1 minus fraction of control)” value (KYSE450TR cells; concentration 16) was 0.8925, the IC50 (KYSE450TR cells; 450t (KYSE450TR), 490 nm, read-out: IC50) was 2.1 µM and the IC50 (KYSE450TR cells; 48 h, taxol-resistant KYSE450TR, value in parentheses, read-out: IC50 48 h KYSE450TR (data in parentheses) (converted)) was 8.59 µM. The IC50 (EGFR; incubation 1 h, read-out: IC50 EGFR 1 h) was 0.42 µM, the IC50 (EGFR; incubation 2 h, read-out: IC50 EGFR 2 h) was 1.67 µM and the “proportion of apoptotic cells” value (KYSE450 cells [2]; KYSE450, 2 μM) was 24.32%. For the same compound, the “proportion of apoptotic cells” value (KYSE450 cells [2]; KYSE450, 4 μM) was 39.89%, the “expression of proliferation marker Ki-67 in tumor” value ([3]; 50 mg/kg i.p., immunofluorescence) was “decreased significantly” and the “expression of P-ERK (Tyr202/204) in tumor” value ([3]; 50 mg/kg i.p., immunohistochemistry) was “decreased significantly”. For the same compound, the ESCC tumor volume [3, 4] was “markedly reduced” and the average tumor weight [3, 4] was “markedly reduced”.
